Where “and” joins values, the source holds several entries; their conditions need not be identical. Equal entries are not always repeated.
Assay: molar heat capacity at constant pressure; xn = mol fraction of the nth substance listed
Conditions: 100 kPa

[Si] [silicon] + [Li]
Conditions | molar heat capacity at constant pressure
46.23 K, Crystal of intercomponent compound 2, relaxation calorimeter, x2 = 0.804 | 2.145 J/K/mol and 2.142 J/K/mol
48.69 K, Crystal of intercomponent compound 1, relaxation calorimetry, x2 = 0.81 | 2.259 J/K/mol
48.7 K, Crystal of intercomponent compound 2, relaxation calorimeter, x2 = 0.804 | 2.429 J/K/mol
48.72 K, Crystal of intercomponent compound 2, relaxation calorimeter, x2 = 0.804 | 2.429 J/K/mol
50 K, Crystal of intercomponent compound 1, relaxation calorimetry + DSC, x2 = 0.81 | 2.41 J/K/mol
50 K, Crystal of intercomponent compound 2, relaxation calorimetry + DSC, x2 = 0.804 | 2.61 J/K/mol
51.29 K, Crystal of intercomponent compound 1, relaxation calorimetry, x2 = 0.81 | 2.56 J/K/mol
51.3 K, Crystal of intercomponent compound 2, relaxation calorimeter, x2 = 0.804 | 2.74 J/K/mol
54.03 K, Crystal of intercomponent compound 1, relaxation calorimetry, x2 = 0.81 | 2.89 J/K/mol
54.03 K, Crystal of intercomponent compound 2, relaxation calorimeter, x2 = 0.804 | 3.08 J/K/mol
54.04 K, Crystal of intercomponent compound 2, relaxation calorimeter, x2 = 0.804 | 3.08 J/K/mol
56.91 K, Crystal of intercomponent compound 1, relaxation calorimetry, x2 = 0.81 | 3.26 J/K/mol
56.92 K, Crystal of intercomponent compound 2, relaxation calorimeter, x2 = 0.804 | 3.45 J/K/mol
59.95 K, Crystal of intercomponent compound 1, relaxation calorimetry, x2 = 0.81 | 3.65 J/K/mol
59.96 K, Crystal of intercomponent compound 2, relaxation calorimeter, x2 = 0.804 | 3.84 J/K/mol
60 K, Crystal of intercomponent compound 1, relaxation calorimetry + DSC, x2 = 0.81 | 3.63 J/K/mol
60 K, Crystal of intercomponent compound 2, relaxation calorimetry + DSC, x2 = 0.804 | 3.81 J/K/mol
63.15 K, Crystal of intercomponent compound 1, relaxation calorimetry, x2 = 0.81 | 4.08 J/K/mol
63.17 K, Crystal of intercomponent compound 2, relaxation calorimeter, x2 = 0.804 | 4.27 J/K/mol
63.18 K, Crystal of intercomponent compound 2, relaxation calorimeter, x2 = 0.804 | 4.27 J/K/mol
66.53 K, Crystal of intercomponent compound 1, relaxation calorimetry, x2 = 0.81 | 4.52 J/K/mol
66.54 K, Crystal of intercomponent compound 2, relaxation calorimeter, x2 = 0.804 | 4.72 J/K/mol
66.55 K, Crystal of intercomponent compound 2, relaxation calorimeter, x2 = 0.804 | 4.73 J/K/mol
70 K, Crystal of intercomponent compound 1, relaxation calorimetry + DSC, x2 = 0.81 | 5.02 J/K/mol
70 K, Crystal of intercomponent compound 2, relaxation calorimetry + DSC, x2 = 0.804 | 5.21 J/K/mol
70.08 K, Crystal of intercomponent compound 1, relaxation calorimetry, x2 = 0.81 | 5.02 J/K/mol
70.1 K, Crystal of intercomponent compound 2, relaxation calorimeter, x2 = 0.804 | 5.22 J/K/mol
70.11 K, Crystal of intercomponent compound 2, relaxation calorimeter, x2 = 0.804 | 5.22 J/K/mol
73.83 K, Crystal of intercomponent compound 1, relaxation calorimetry, x2 = 0.81 | 5.54 J/K/mol
73.84 K, Crystal of intercomponent compound 2, relaxation calorimeter, x2 = 0.804 | 5.75 J/K/mol
73.86 K, Crystal of intercomponent compound 2, relaxation calorimeter, x2 = 0.804 | 5.75 J/K/mol
77.77 K, Crystal of intercomponent compound 1, relaxation calorimetry, x2 = 0.81 | 6.09 J/K/mol
77.78 K, Crystal of intercomponent compound 2, relaxation calorimeter, x2 = 0.804 | 6.31 J/K/mol
77.8 K, Crystal of intercomponent compound 2, relaxation calorimeter, x2 = 0.804 | 6.32 J/K/mol
80 K, Crystal of intercomponent compound 1, relaxation calorimetry + DSC, x2 = 0.81 | 6.43 J/K/mol
80 K, Crystal of intercomponent compound 2, relaxation calorimetry + DSC, x2 = 0.804 | 6.65 J/K/mol
81.93 K, Crystal of intercomponent compound 1, relaxation calorimetry, x2 = 0.81 | 6.66 J/K/mol
81.94 K, Crystal of intercomponent compound 2, relaxation calorimeter, x2 = 0.804 | 6.9 J/K/mol
81.95 K, Crystal of intercomponent compound 2, relaxation calorimeter, x2 = 0.804 | 6.9 J/K/mol
86.31 K, Crystal of intercomponent compound 1, relaxation calorimetry, x2 = 0.81 | 7.27 J/K/mol
86.32 K, Crystal of intercomponent compound 2, relaxation calorimeter, x2 = 0.804 | 7.53 J/K/mol
86.33 K, Crystal of intercomponent compound 2, relaxation calorimeter, x2 = 0.804 | 7.53 J/K/mol
90 K, Crystal of intercomponent compound 1, relaxation calorimetry + DSC, x2 = 0.81 | 7.82 J/K/mol
90 K, Crystal of intercomponent compound 2, relaxation calorimetry + DSC, x2 = 0.804 | 8.08 J/K/mol
90.93 K, Crystal of intercomponent compound 1, relaxation calorimetry, x2 = 0.81 | 7.89 J/K/mol
90.93 K, Crystal of intercomponent compound 2, relaxation calorimeter, x2 = 0.804 | 8.14 J/K/mol
90.95 K, Crystal of intercomponent compound 2, relaxation calorimeter, x2 = 0.804 | 8.17 J/K/mol
91 K, Crystal of intercomponent compound 2, relaxation calorimeter, x2 = 0.804 | 8.16 J/K/mol
91.01 K, Crystal of intercomponent compound 1, relaxation calorimetry, x2 = 0.81 | 7.88 J/K/mol
91.02 K, Crystal of intercomponent compound 2, relaxation calorimeter, x2 = 0.804 | 8.18 J/K/mol
95.01 K, Crystal of intercomponent compound 1, relaxation calorimetry, x2 = 0.81 | 8.41 J/K/mol
95.02 K, Crystal of intercomponent compound 2, relaxation calorimeter, x2 = 0.804 | 8.71 J/K/mol
95.04 K, Crystal of intercomponent compound 2, relaxation calorimeter, x2 = 0.804 | 8.73 J/K/mol
99.06 K, Crystal of intercomponent compound 2, relaxation calorimeter, x2 = 0.804 | 9.29 J/K/mol
99.07 K, Crystal of intercomponent compound 1, relaxation calorimetry, x2 = 0.81 | 8.94 J/K/mol
99.08 K, Crystal of intercomponent compound 2, relaxation calorimeter, x2 = 0.804 | 9.32 J/K/mol
100 K, Crystal of intercomponent compound 1, relaxation calorimetry + DSC, x2 = 0.81 | 9.14 J/K/mol
100 K, Crystal of intercomponent compound 2, relaxation calorimetry + DSC, x2 = 0.804 | 9.44 J/K/mol
103.16 K, Crystal of intercomponent compound 1, relaxation calorimetry, x2 = 0.81 | 9.52 J/K/mol
103.16 K, Crystal of intercomponent compound 2, relaxation calorimeter, x2 = 0.804 | 9.83 J/K/mol
103.18 K, Crystal of intercomponent compound 2, relaxation calorimeter, x2 = 0.804 | 9.87 J/K/mol
107.24 K, Crystal of intercomponent compound 1, relaxation calorimetry, x2 = 0.81 | 10.04 J/K/mol
107.25 K, Crystal of intercomponent compound 2, relaxation calorimeter, x2 = 0.804 | 10.37 J/K/mol
107.26 K, Crystal of intercomponent compound 2, relaxation calorimeter, x2 = 0.804 | 10.4 J/K/mol
110 K, Crystal of intercomponent compound 1, relaxation calorimetry + DSC, x2 = 0.81 | 10.39 J/K/mol
110 K, Crystal of intercomponent compound 2, relaxation calorimetry + DSC, x2 = 0.804 | 10.73 J/K/mol
111.29 K, Crystal of intercomponent compound 1, relaxation calorimetry, x2 = 0.81 | 10.53 J/K/mol
111.29 K, Crystal of intercomponent compound 2, relaxation calorimeter, x2 = 0.804 | 10.88 J/K/mol
111.31 K, Crystal of intercomponent compound 2, relaxation calorimeter, x2 = 0.804 | 10.88 J/K/mol
115.39 K, Crystal of intercomponent compound 1, relaxation calorimetry, x2 = 0.81 | 11.05 J/K/mol
115.4 K, Crystal of intercomponent compound 2, relaxation calorimeter, x2 = 0.804 | 11.39 J/K/mol
115.41 K, Crystal of intercomponent compound 2, relaxation calorimeter, x2 = 0.804 | 11.41 J/K/mol
119.47 K, Crystal of intercomponent compound 1, relaxation calorimetry, x2 = 0.81 | 11.55 J/K/mol
119.47 K, Crystal of intercomponent compound 2, relaxation calorimeter, x2 = 0.804 | 11.87 J/K/mol
119.49 K, Crystal of intercomponent compound 2, relaxation calorimeter, x2 = 0.804 | 11.92 J/K/mol
120 K, Crystal of intercomponent compound 1, relaxation calorimetry + DSC, x2 = 0.81 | 11.56 J/K/mol
120 K, Crystal of intercomponent compound 2, relaxation calorimetry + DSC, x2 = 0.804 | 11.93 J/K/mol
123.51 K, Crystal of intercomponent compound 1, relaxation calorimetry, x2 = 0.81 | 12 J/K/mol
123.51 K, Crystal of intercomponent compound 2, relaxation calorimeter, x2 = 0.804 | 12.35 J/K/mol
123.53 K, Crystal of intercomponent compound 2, relaxation calorimeter, x2 = 0.804 | 12.4 J/K/mol
127.61 K, Crystal of intercomponent compound 1, relaxation calorimetry, x2 = 0.81 | 12.47 J/K/mol

— the NIST ThermoML archive (doi:10.1016/j.jct.2015.01.004)
